2 molecules from patent publication US20040001791A1, “Composition, method of use, and devices for the treatment of onychomycosis” (priority 2000, published 2004) can be followed below.

One experiment deals with fungal infected toe nail. The experiment in a line: Topical treatment of a fungal infected toe nail in a patient. Format: in vivo, human. As to conditions: aqueous 10% (w/v) solution applied approximately thirty minutes, air dried, washed with water, Example 2 repeated monthly. The text has this: As the treated nail grew, healthy nail tissue appeared at the base of the nail bed while the infected portion of the nail was pushed off the nail bed and periodically trimmed away. […] A patient diagnosed as having a fungal infected toe nail began treatment by applying with a cotton swab an aqueous 10% (w/v) copper(II)sulfate pentahydrate solution to the infected nail as well as to all nails on the same foot. […] As the treated nail grew, healthy nail tissue appeared at the base of the nail bed while the infected portion of the nail was pushed off the nail bed and periodically trimmed away. […] The infected portion of the patient's nail continued to have a bluish color.

The test system of experiment [1] is fungal infected fingernail (onychomycosis). Kind of experiment: Topical treatment of a fungal infected fingernail in a patient. Format: in vivo, human.
Text: The copper sulfate solution was applied to their fingernails for approximately thirty minutes and then allowed to air dry. Excess copper sulfate powder was removed by washing two-three times with water. […] Monthly, the copper sulfate solution was applied as given above to the infected fingernail and to all fingernails on the same hand.
The bandage was applied to the infected nail and secured in place. Care was given to ensure that the solution soaked into the crevice along the edge of the nail bed and cuticle. […] The bandage was worn for two days and then replaced with a clean dry bandage to protect the nail from snagging. The treatment was repeated on Day 31 and again on Day 45; no further treatments were given.

Entries after “also recorded” stand apart in the source; their conditions may differ.

On to `O.O.O.O.O.O=S(=O)([O-])[O-].[Cu+2]` [copper(II)sulfate pentahydrate], for which, in the experiment on fungal infected toe nail, the “Outcome of toe nail treatment (spread of fungal infection, nail condition)” value is listed as “the fungal infection did not spread to healthy nail tissue; also recorded: resulting in a normal healthy nail”. The “Outcome of fingernail treatment (spread of fungal infection, nail condition)” value in experiment [1] (patient, aqueous 10% (w/v) solution applied approximately thirty minutes, washed, repeated monthly) is recorded as “resulting in a normal healthy nail”.

Take `O=S(=O)([O-])[O-].[Cu+2]` [copper sulfate]: the “Nail examination after treatment” value in experiment [1] (person, right index fingernail, 10% aqueous solution with trace of detergent on bandage worn two days, Day 1, 31, 45, examined Day 132) is given as “New pink nail growth was present from the cuticle to a point midway along the nail”.
